Data from ChEMBL document CHEMBL5247593, “Novel heterocyclic hydroxamates as inhibitors of the mycobacterial zinc metalloprotease Zmp1 to probe its mechanism of function” (Eur J Med Chem, 2022).

Legend:
[1] = test system: Mycobacterium tuberculosis; assay: Antimycobacterial activity against Mycobacterium tuberculosis H37Ra infected in mouse RAW264.7 cells assessed as reduction in intracellular bacterial survival at 128 uM incubated for 3 days by luminescence based analysis relative to control; type: functional; details: time 3 day
[2] = test system: Mycobacterium tuberculosis; assay: Antimycobacterial activity against Mycobacterium tuberculosis H37Ra ATCC 25177 assessed as inhibition of bacterial growth at 128 uM measured after 7 days by luminescence based analysis relative to control; type: functional; details: H37Ra ATCC 25177, 168 h, time 7 day
[3] = test system: Mycobacterium tuberculosis; assay: Inhibition of Mycobacterium tuberculosis Zmp1 at 8 to 40 uM by MALDI-TOF-MS analysis; details: dose 8-40 µM
RAW264.7 = assay: Cytotoxicity against mouse RAW264.7 cells assessed as inhibition of cell growth measured after 72 hrs by resazurin staining based […] analysis; type: functional; details: RAW264.7, 72 h
MRC5 = assay: Cytotoxicity against human MRC5 cells assessed as inhibition of cell growth measured after 72 hrs by resazurin staining based […] analysis; type: functional; details: MRC5, 72 h

SMILES	Activity [1]	inhibition at 128 µM [2]	inhibition [3]	IC50 (RAW264.7; read-out: IC50)	IC50 (MRC5)	IC50 (RAW264.7)
COC(=O)[C@H](CC(C)C)NC(=O)c1cccc(/C=C2\SC(=O)N(CC(=O)NOCc3ccccc3)C2=O)c1	51.9%	4.2%	19%	> 128 µM	> 128 µM	–
CC(C)C[C@H](NC(=O)CNC(=O)c1ccn(CC(=O)NOCc2ccccc2)c1)C(=O)O	–	9.2%	26%	> 128 µM	> 128 µM	–
C=CCONC(=O)CN1C(=O)S/C(=C\c2cccc(C(=O)N[C@@H](CC(C)C)C(=O)OC)c2)C1=O	46.3%	3.2%	47%	> 128 µM	> 128 µM	–
C=CCONC(=O)Cn1cc(C(=O)N[C@@H](C)C(=O)N[C@H](C(=O)O)C(C)C)c2ccccc21	–	13.6%	50%	> 128 µM	> 128 µM	–
COC(=O)[C@@H](NC(=O)c1ccc(/C=C2\SC(=O)N(CC(=O)NOCc3ccccc3)C2=O)cc1)C(C)C	83.2%	6.2%	41%	> 128 µM	> 128 µM	–
COc1nc2ccc(Br)cc2cc1[C@@H](c1ccccc1)[C@@](O)(CCN(C)C)c1cccc2ccccc12 [BEDAQUILINE]	–	100%	–	–	–	–
CC(C)C[C@H](NC(=O)[C@H](C)NC(=O)c1ccn(CC(=O)NOCc2ccccc2)c1)C(=O)O	–	3.2%	62%	> 128 µM	> 128 µM	–
CC/C(=C(\c1ccccc1)c1ccc(OCCN(C)C)cc1)c1ccccc1 [TAMOXIFEN]	–	–	–	–	17.2 µM	18.5 µM
CC(C)C[C@H](NC(=O)CNC(=O)c1cn(CC(=O)NOCc2ccccc2)c2ccccc12)C(=O)O	–	11.1%	57%	> 128 µM	> 128 µM	–
C=CCONC(=O)Cn1ccc(C(=O)N[C@@H](C)C(=O)N[C@@H](CC(C)C)C(=O)O)c1	–	13.8%	88%	> 128 µM	> 128 µM	–
C=CCONC(=O)CN1C(=O)S/C(=C\c2ccc(C(=O)N[C@H](C(=O)OC)C(C)C)cc2)C1=O	28.4%	8.2%	38%	> 128 µM	> 128 µM	–
C=CCONC(=O)Cn1ccc(C(=O)NCC(=O)N[C@@H](CC(C)C)C(=O)O)c1	–	6.9%	13%	> 128 µM	> 128 µM	–
COC(=O)[C@@H](NC(=O)c1cccc(/C=C2\SC(=O)N(CC(=O)NOCc3ccccc3)C2=O)c1)C(C)C	35.1%	6.3%	–	> 128 µM	> 128 µM	–
CC(C)[C@H](NC(=O)CNC(=O)c1cn(CC(=O)NOCc2ccccc2)c2ccccc12)C(=O)O	37.2%	30.3%	69%	> 128 µM	> 128 µM	–
C=CCONC(=O)Cn1ccc(C(=O)NCC(=O)N[C@H](C(=O)O)C(C)C)c1	–	–	14%	–	–	–
CO[C@H]1/C=C/O[C@@]2(C)Oc3c(C)c(O)c4c(O)c(c(/C=N/N5CCN(C)CC5)c(O)c4c3C2=O)NC(=O)/C(C)=C\C=C\[C@H](C)[C@H](O)[C@@H](C)[C@@H](O)[C@@H](C)[C@H](OC(C)=O)[C@@H]1C [RIFAMPIN]	–	100%	–	–	–	–
C=CCONC(=O)Cn1cc(C(=O)N[C@@H](C)C(=O)N[C@@H](CC(C)C)C(=O)O)c2ccccc21	–	12.4%	86%	> 128 µM	> 128 µM	–
C=CCONC(=O)Cn1cc(C(=O)NCC(=O)N[C@@H](CC(C)C)C(=O)O)c2ccccc21	–	14.6%	47%	> 128 µM	> 128 µM	–
COC(=O)[C@H](CC(C)C)NC(=O)c1ccc(/C=C2\SC(=O)N(CC(=O)NOCc3ccccc3)C2=O)cc1	80.3%	2%	5%	> 128 µM	> 128 µM	–
CC(C)C[C@H](NC(=O)[C@H](C)NC(=O)c1cn(CC(=O)NOCc2ccccc2)c2ccccc12)C(=O)O	–	13.6%	56%	> 128 µM	> 128 µM	–
CC(C)[C@H](NC(=O)[C@H](C)NC(=O)c1ccn(CC(=O)NOCc2ccccc2)c1)C(=O)O	–	6.9%	16%	> 128 µM	> 128 µM	–
NNC(=O)c1ccncc1 [ISONIAZID]	–	100%	–	–	–	–
C=CCONC(=O)CN1C(=O)S/C(=C\c2ccc(C(=O)N[C@@H](CC(C)C)C(=O)OC)cc2)C1=O	67.3%	4.4%	6%	> 128 µM	> 128 µM	–
C=CCONC(=O)CN1C(=O)S/C(=C\c2cccc(C(=O)N[C@H](C(=O)OC)C(C)C)c2)C1=O	14.1%	3.4%	–	> 128 µM	> 128 µM	–
C=CCONC(=O)Cn1cc(C(=O)NCC(=O)N[C@H](C(=O)O)C(C)C)c2ccccc21	–	10.3%	56%	> 128 µM	> 128 µM	–
CC(C)[C@H](NC(=O)CNC(=O)c1ccn(CC(=O)NOCc2ccccc2)c1)C(=O)O	–	5.9%	70%	> 128 µM	> 128 µM	–
C=CCONC(=O)Cn1ccc(C(=O)N[C@@H](C)C(=O)N[C@H](C(=O)O)C(C)C)c1	–	12.8%	27%	> 128 µM	> 128 µM	–
CC(C)[C@H](NC(=O)[C@H](C)NC(=O)c1cn(CC(=O)NOCc2ccccc2)c2ccccc12)C(=O)O	–	23.6%	59%	> 128 µM	> 128 µM	–
